Experimental data published in ChEMBL document CHEMBL5375945, “Structure-Guided Design of a Domain-Selective Bromodomain and Extra Terminal N-Terminal Bromodomain Chemical Probe” (J Med Chem, 2023).

What was measured:
[1] = molecular target: T1, Bromodomain-containing protein 4 (Homo sapiens, UniProt O60885); assay: Inhibition of BRD4 BD1 (unknown origin) by TR-FRET assay
[2] = molecular target: T1, Bromodomain-containing protein 4; assay: Inhibition of BRD4 BD2 (unknown origin) by TR-FRET assay

SMILES | IC50 [1] | IC50 [2]
CC(=O)N1CCC[C@H](Cn2c(-c3cc(C)c(=O)n(C)c3)nc3ccccc32)C1 | 31.6 nM | 501 nM
CC(=O)N1CCC[C@@H](Cn2c(-c3cc(C)c(=O)n(C)c3)nc3cc(Br)ccc32)C1 | 10 nM | 501 nM
CC(=O)N1CCC[C@@H](Cn2c(-c3cc(C)c(=O)n(C)c3)nc3ccccc32)C1 |  | 631 nM
